This is an account of results in ChEMBL document CHEMBL5247678, “Design, Synthesis, and Structure-Activity Relationships of Biaryl Anilines as Subtype-Selective PPAR-alpha Agonists” (ACS Med Chem Lett, 2023).

The nature of series [1]: Cytotoxicity against human RPE cells measured upto 50 uM. It counts as toxicity, cell-based.
A short description of series [2]: Cytotoxicity against human RPE cells assessed as cell viability at 50 uM. It counts as toxicity, cell-based.

Take `O=C(O)c1cc(F)cc(NCc2ccc(-c3ccccc3)cc2)c1`: the Activity result in series [1] is “Non-Toxic”.
Take `O=C(O)c1cc(F)cc(NCc2ccc(-c3ccccc3C(F)(F)F)cc2)c1`: the Activity entry in series [1] is “Non-Toxic”.
Regarding `O=C(O)c1cc(F)cc(NCc2cn(-c3ccc(C(F)(F)F)cc3)nn2)c1`, the figures for the Activity result in series [1] and in series [2] were “Non-Toxic” and “Toxic”, respectively.
On to `O=C(O)c1cc(F)cc(NCc2ccc(-c3ccc(C(F)(F)F)cc3)cc2)c1`, for which, in series [1], the Activity result is reported as “Non-Toxic”.
